The subject of the assay is lashes and adjacent hairs. In words: Clinical observation of lashes and adjacent hairs in glaucoma patients treated with bimatoprost in only one eye. Format: in vivo. An excerpt:
In the course of treating patients having glaucoma, treatment may only be appropriate in one eye. […] The lash appearance on the lids of the treated eyes would have appeared quite attractive if it represented a bilateral phenomenon. As a result of its asymmetric nature, the long lashes on one side could be construed as disturbing from a cosmetic standpoint. A systemic examination was preformed as a result of the asymmetric phenomenon. It soon became apparent that this altered appearance was not an isolated finding.
The changes in the lashes were apparent on gross inspection in several patients once attention was focused on the issue. In those with light colored hair and lashes, the differences were only seen easily with the aid of the high magnification and lighting capabilities of the slit lamp biomicroscope. In the course of glaucoma follow-up examination, attention is generally immediately focused on the eye itself. As a result of the high power magnification needed only one eye is seen at a time and the eye is seen at a high enough power that the lashes are not in focus. At these higher powers, any lash asymmetry between the two eyes is not likely to be noticed except by careful systematic comparison of the lashes and adjacent hairs of the eyelids of the two eyes.
Observed parameters leading to the conclusion that more robust hair growth occurred in the treatment area following administration of the prostaglandin analogue were multiple. They included increased length of lashed, increased number of lashes along the normal lash line, increased thickness and luster of lashes, increased auxiliary lash-like terminal hair in transitional areas adjacent to areas of normal lash growth, increased auxiliary lash-like terminal hairs at the medial and lateral canthal area, increased pigmentation of the lashes, increased numbers, increased length, as well as increased luster, and thickness of fine hair on the skin of the adjacent lid, and finally, increased perpendicular angulation of lashes and lash-like terminal hairs.

As to `CCNC(=O)CCC/C=C\C[C@@H]1[C@@H](/C=C/[C@@H](O)CCc2ccccc2)[C@H](O)C[C@@H]1O` [bimatoprost], where the note is “a glaucoma patient treated with bimatoprost in one eye, gross examination”, the “lash appearance in treated eye versus non-treated eye” value is “longer, thicker, and fuller in the treated eye than in the non-treated eye”. In addition, the “differences in the lashes and adjacent hairs of treated side” value (all patients taking the drug on a unilateral basis for longer than 6 months) is on record as “Definite differences could be identified to varying degrees”. In addition, where the note is “many subjects, lash length, number, thickness, luster, pigmentation, auxiliary terminal hairs”, the “hair growth, conclusion from multiple parameters of hair appearance in treated versus control areas” value is on record as “hair growth is stimulated”.

These data come from patent publication US20090192151A1, “THERAPEUTIC AMIDES AND RELATED COMPOUNDS” (priority 2008, published 2009).
